From ChEMBL document CHEMBL4354822, “Ligand-Based Design of Nondimethylphenyl-Diarylpyrimidines with Improved Metabolic Stability, Safety, and Oral Pharmacokinetic Profiles” (J Med Chem, 2019)

Experiments:
[1] = Aqueous solubility of compound at 2 mg measured for 24 hrs by HPLC analysis; type: physicochemical; details: aqueous medium
[2] = tested on: Human immunodeficiency virus 1; assay: Antiviral activity against HIV1 3B infected in human MT4 cells incubated assessed as reduction in virus-induced cytopathic effect for 5 days by MTT assay; type: functional, organism-based; details: Human immunodeficiency virus 1, 3B, MT4, 120 h
[3] = tested on: MT4; assay: Cytotoxicity against human MT4 cells assessed as reduction in cell viability incubated for 5 days by MTT assay; type: functional; details: MT4, 120 h
[4] = Selectivity index, ratio of CC50 for human MT4 cells to EC50 for antiviral activity against HIV1 3B infected in human MT4 cells incubated for 5 days by MTT assay; type: toxicity, cell-based; details: MT4 cells (uninfected for CC50; HIV-1 3B infected for EC50)
[5] = target: Human immunodeficiency virus type 1 reverse transcriptase (Human immunodeficiency virus 1) (UniProt Q72547); assay: Ratio of IC50 for nevirapine to IC50 for test compound for recombinant wild type HIV1 reverse transcriptase p66/p51
[6] = tested on: Human immunodeficiency virus 1; assay: Antiviral activity against HIV1 harboring reverse transcriptase L100I mutant infected in human MT4 cells assessed as reduction in virus-induced cytopathic effect incubated for 5 days by MTT assay; type: functional, organism-based; details: Human immunodeficiency virus 1, MT4, 120 h
[7] = tested on: Human immunodeficiency virus 1; assay: Antiviral activity against HIV1 harboring reverse transcriptase K103N mutant infected in human MT4 cells assessed as reduction in virus-induced cytopathic effect incubated for 5 days by MTT assay; type: functional, organism-based; details: Human immunodeficiency virus 1, MT4, 120 h
[8] = tested on: Human immunodeficiency virus 1; assay: Antiviral activity against HIV1 harboring reverse transcriptase Y181C mutant infected in human MT4 cells assessed as reduction in virus-induced cytopathic effect incubated for 5 days by MTT assay; type: functional, organism-based; details: Human immunodeficiency virus 1, MT4, 120 h
[9] = tested on: Human immunodeficiency virus 1; assay: Antiviral activity against HIV1 harboring reverse transcriptase Y188L mutant infected in human MT4 cells assessed as reduction in virus-induced cytopathic effect incubated for 5 days by MTT assay; type: functional, organism-based; details: Human immunodeficiency virus 1, MT4, 120 h
[10] = tested on: Human immunodeficiency virus 1; assay: Antiviral activity against HIV1 harboring reverse transcriptase E138K mutant infected in human MT4 cells assessed as reduction in virus-induced cytopathic effect incubated for 5 days by MTT assay; type: functional, organism-based; details: Human immunodeficiency virus 1, MT4, 120 h
[11] = target: Human immunodeficiency virus type 1 reverse transcriptase (Human immunodeficiency virus 1, UniProt Q72547); assay: Inhibition of recombinant wild type HIV1 reverse transcriptase p66/p51 incubated for 40 mins by picogreen dye-based spectrofluorometric analysis

SMILES | solubility at 24 h [1] [µg/mL] | EC50 [2] [nM] | CC50 [3] [nM] | selectivity ratio at 120 h [4] | Ratio IC50 [5] | EC50 [6] [nM] | EC50 [7] [nM] | EC50 [8] [nM] | EC50 [9] [nM] | EC50 [10] [nM] | IC50 [11] [nM]
N#Cc1ccc(Nc2nccc(Nc3c(F)cc(-c4ccc(C#N)cc4)cc3F)n2)cc1.O=S(=O)(O)O | 0.36 |  |  |  |  |  |  |  |  |  | 
N#Cc1ccc(Nc2nccc(Oc3ccc(-c4ccc(C#N)cc4)c(Cl)c3)n2)cc1 |  | 9.9 | 31100 | 3130 |  |  |  |  |  |  | 
N#Cc1ccc(Nc2nccc(Oc3ccc(-c4ccc(C#N)c(Cl)c4)cc3Cl)n2)cc1 |  | 63.5 | 14900 | 232 |  |  |  |  |  |  | 
N#Cc1ccc(Nc2nccc(Nc3c(F)cc(-c4ccc(C#N)cc4)cc3F)n2)cc1 |  |  |  |  | 21 to 109 |  |  |  |  |  | 
Cc1cc(C#N)ccc1-c1ccc(Oc2ccnc(Nc3ccc(C#N)cc3)n2)c(F)c1 |  | 66.5 | > 297000 | > 4460 |  |  |  |  |  |  | 
Cc1cc(Nc2ccnc(Nc3ccc(C#N)cc3)n2)ccc1-c1ccc(C#N)cc1 |  | 13.9 | 12400 | 894 |  |  |  |  |  |  | 
CS(=O)(=O)O.N#Cc1ccc(Nc2nccc(Nc3c(F)cc(-c4ccc(C#N)cc4)cc3F)n2)cc1 | 0.88 |  |  |  |  |  |  |  |  |  | 
Cc1cc(-c2ccc(Oc3ccnc(Nc4ccc(C#N)cc4)n3)c(F)c2)ccc1C#N |  | 49.9 | > 297000 | > 6020 |  |  |  |  |  |  | 
N#Cc1ccc(Nc2nccc(Oc3ccc(-c4ccc(C#N)cc4)c(C(F)(F)F)c3)n2)cc1 |  | 18.2 | > 273000 | > 15000 |  |  |  |  |  |  | 
N#Cc1ccc(Nc2nccc(Oc3ccc(-c4ccc(C#N)c(F)c4)cc3F)n2)cc1 |  | 120 | > 294000 | > 2430 |  |  |  |  |  |  | 
N#Cc1ccc(Nc2nccc(Oc3c(F)cc(-c4ccc(C#N)cc4)cc3F)n2)cc1 |  | 3.3 | > 294000 | > 89300 | 21 to 109 | 17.2 | 3.5 | 23.5 | > 294000 | 5.2 | 13.2
N#Cc1ccc(Nc2nccc(Oc3ccc(-c4ccc(C#N)cc4F)cc3F)n2)cc1 |  | 3.1 | > 294000 | > 98000 |  |  |  |  |  |  | 
Cc1cc(Oc2ccnc(Nc3ccc(C#N)cc3)n2)ccc1-c1ccc(C#N)cc1 |  | 719 | 29400 | 41 |  |  |  |  |  |  | 
N#Cc1ccc(Nc2nccc(Oc3ccc(-c4ccc(C#N)cc4)c(F)c3F)n2)cc1 |  | 15.3 | > 294000 | > 19200 |  |  |  |  |  |  | 
Cc1cc(-c2ccc(C#N)cc2)ccc1Nc1ccnc(Nc2ccc(C#N)cc2)n1 |  | 2.1 | 9200 | 4480 | 21 to 109 | 16.7 | 3 | 9 | 240 | 3 | < 6.2
Cc1cc(-c2ccc(C#N)cc2)ccc1Oc1ccnc(Nc2ccc(C#N)cc2)n1 |  | 2.5 | > 310000 | > 122000 | 21 to 109 | 47.1 | 8.7 | 18.4 | 14400 | 6.2 | 5.5
Cc1cc(-c2ccc(C#N)cc2F)ccc1Oc1ccnc(Nc2ccc(C#N)cc2)n1 |  | 10.7 | > 297000 | > 27500 | 21 to 109 | 13.2 | 4.7 | 14.6 | > 294000 | 4.9 | 8.7
N#Cc1ccc(Nc2nccc(Nc3c(F)cc(-c4ccc(C#N)cc4)cc3F)n2)cc1.O=CO | 0.35 |  |  |  |  |  |  |  |  |  | 

SMILES | solubility at 24 h [1] [µg/mL] | EC50 [2] [nM] | CC50 [3] [nM] | selectivity ratio at 120 h [4] | Ratio IC50 [5] | EC50 [6] [nM] | EC50 [7] [nM] | EC50 [8] [nM] | EC50 [9] [nM] | EC50 [10] [nM] | IC50 [11] [nM]
COc1cc(-c2ccc(C#N)cc2)ccc1Nc1ccnc(Nc2ccc(C#N)cc2)n1 |  | 2.9 | > 299000 | > 106000 | 21 to 109 | 122 | 18.4 | 158 | > 299000 | 7.4 | 6
CC(=O)O.N#Cc1ccc(Nc2nccc(Nc3c(F)cc(-c4ccc(C#N)cc4)cc3F)n2)cc1 | 0.34 |  |  |  |  |  |  |  |  |  | 
N#Cc1ccc(Nc2nccc(Nc3ccc(-c4ccc(C#N)cc4)c(F)c3)n2)cc1 |  | 14.5 | > 271000 | > 18600 |  |  |  |  |  |  | 
Cc1cc(-c2ccc(C#N)cc2)c(Cl)cc1Oc1ccnc(Nc2ccc(C#N)cc2)n1 |  | 4.6 | > 286000 | > 63300 | 21 to 109 | 8.5 | 3.7 | 32 | > 286000 | 11.9 | 18.8
N#Cc1ccc(Nc2nccc(Oc3ccc(-c4ccc(C#N)cc4)c(F)c3)n2)cc1 |  | 3.2 | > 307000 | > 98000 |  |  |  |  |  |  | 
N#Cc1ccc(Nc2nccc(Nc3ccc(-c4ccc(C#N)cc4)cc3F)n2)cc1 |  | 11.3 | 308000 | > 27300 |  |  |  |  |  |  | 
O=C1Nc2ccc(Cl)cc2[C@@](C#CC2CC2)(C(F)(F)F)O1 [EFAVIRENZ] |  | 7.4 | > 6340 |  |  | 44 | 102 | 7.3 | 290 | 6.3 | 
N#Cc1ccc(Nc2nccc(Oc3ccc(-c4ccc(C#N)cc4Cl)cc3Cl)n2)cc1 |  | 4990 | > 273000 | > 55 |  |  |  |  |  |  | 
Cc1cc(-c2ccc(C#N)c(F)c2)ccc1Oc1ccnc(Nc2ccc(C#N)cc2)n1 |  | 17.1 | > 297000 | > 17400 |  |  |  |  |  |  | 
COc1cc(-c2ccc(C#N)cc2)ccc1Oc1ccnc(Nc2ccc(C#N)cc2)n1 |  | 1.6 | > 298000 | > 192000 | 21 to 109 | 11.9 | 4.5 | 16.7 | > 298000 | 2 | 9.3
N#Cc1ccc(Nc2nccc(Nc3c(F)cc(-c4ccc(C#N)cc4)cc3F)n2)cc1.O=C(O)C(F)(F)F | 0.35 |  |  |  |  |  |  |  |  |  | 
Cc1ccnc2c1NC(=O)c1cccnc1N2C1CC1 [NEVIRAPINE] |  |  | > 15000 |  |  | 2100 | > 10100 | > 15900 |  |  | 
N#Cc1ccc(Nc2nccc(Oc3ccc(-c4ccc(C#N)cc4)cc3Cl)n2)cc1 |  | 1.7 | > 295000 | > 179000 | 21 to 109 | 11.3 | < 3.8 | 13.7 | 330 | < 3.8 | 8.3
COc1cc(Oc2ccnc(Nc3ccc(C#N)cc3)n2)ccc1-c1ccc(C#N)cc1 |  | 3.1 | > 298000 | > 100000 |  |  |  |  |  |  | 
N#Cc1ccc(Nc2nccc(Nc3c(F)cc(-c4ccc(C#N)cc4)cc3F)n2)cc1.O=S(=O)(O)c1ccccc1 | 0.39 |  |  |  |  |  |  |  |  |  | 
N#Cc1ccc(Nc2nccc(Oc3ccc(-c4ccc(C#N)cc4)cc3C(F)(F)F)n2)cc1 |  | 6.8 | > 273000 | > 40600 |  |  |  |  |  |  | 
COc1cc(Nc2ccnc(Nc3ccc(C#N)cc3)n2)ccc1-c1ccc(C#N)cc1 |  | 17.5 | 5260 | 304 |  |  |  |  |  |  | 
N#Cc1ccc(Nc2nccc(Oc3ccc(-c4ccc(C#N)cc4)cc3F)n2)cc1 |  | 1.8 | > 307000 | > 172000 | 21 to 109 | 63.9 | 12.3 | 49.1 | > 307000 | 6.4 | < 3.7
